Key:
Test in all cases: radiometric filter-binding kinase assay
EEF2K (human) = EEF2K (human) (UniProt O00418)
[1] = test system: SGK1 (human), O00141 [S422D]
PIM2 (human) = PIM2 (human) (UniProt Q9P1W9)
PAK7 (human) = PAK7 (human) (UniProt Q9P286)
MAP2K2 (human) = MAP2K2 (human) (UniProt P36507)
ERBB4 (human) = ERBB4 (human) (UniProt Q15303)
IGF1R (human) = IGF1R (human) (UniProt P08069)
PIM1 (human) = PIM1 (human) (UniProt P11309)
PRKCZ (human) = PRKCZ (human) (UniProt Q05513)
SYK (human) = SYK (human) (UniProt P43405)
PHKG1 (human) = PHKG1 (human) (UniProt Q16816)
MARK1 (human) = MARK1 (human) (UniProt Q9P0L2)
MAPK9 (human) = MAPK9 (human) (UniProt P45984)
MELK (human) = MELK (human) (UniProt Q14680)
CAMKK2 (human) = CAMKK2 (human) (UniProt Q96RR4)
MAPK3 (human) = MAPK3 (human) (UniProt P27361)
PRKACA (human) = PRKACA (human) (UniProt P17612)
PRKAA1 or PRKAA2 (rat) = settings: accession and sequence are those of the human protein
IKBKE (human) = IKBKE (human) (UniProt Q14164)
DYRK1A (human) = DYRK1A (human) (UniProt Q13627)
EPHB4 (human) = EPHB4 (human) (UniProt P54760)
BRSK1 (human) = BRSK1 (human) (UniProt Q8TDC3)
MAP2K6 (human) = MAP2K6 (human) (UniProt P52564)
MAPKAPK5 (human) = MAPKAPK5 (human) (UniProt Q8IW41)
MAP3K5 (human) = MAP3K5 (human) (UniProt Q99683)
BRSK2 (human) = BRSK2 (human) (UniProt Q8IWQ3)
PIM3 (human) = PIM3 (human) (UniProt Q86V86)
MAPK13 (human) = MAPK13 (human) (UniProt O15264)
MAPKAPK2 (human) = MAPKAPK2 (human) (UniProt P49137)
MKNK1 (human) = MKNK1 (human) (UniProt Q9BUB5)
GSK3B (human) = GSK3B (human) (UniProt P49841)
MAPK12 (human) = MAPK12 (human) (UniProt P53778)
FGFR1 (human) = FGFR1 (human) (UniProt P11362)
DAPK1 (human) = DAPK1 (human) (UniProt P53355)
HIPK3 (human) = HIPK3 (human) (UniProt Q9H422)
STK3 (human) = STK3 (human) (UniProt Q13188)

Sequence of MAP2K2 (human) (P36507 whole entry, looked up): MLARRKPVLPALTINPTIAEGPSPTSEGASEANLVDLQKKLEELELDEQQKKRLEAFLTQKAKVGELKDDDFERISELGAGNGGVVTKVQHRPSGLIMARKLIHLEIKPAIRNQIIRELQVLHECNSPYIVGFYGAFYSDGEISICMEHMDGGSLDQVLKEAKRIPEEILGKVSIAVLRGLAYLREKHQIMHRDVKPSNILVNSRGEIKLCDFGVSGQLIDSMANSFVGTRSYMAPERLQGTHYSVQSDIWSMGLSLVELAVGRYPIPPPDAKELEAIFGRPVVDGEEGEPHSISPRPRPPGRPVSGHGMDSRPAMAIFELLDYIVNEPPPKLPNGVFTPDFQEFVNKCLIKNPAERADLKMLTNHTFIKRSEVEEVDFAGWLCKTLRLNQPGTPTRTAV
Sequence of PIM2 (human) (Q9P1W9 whole entry, looked up): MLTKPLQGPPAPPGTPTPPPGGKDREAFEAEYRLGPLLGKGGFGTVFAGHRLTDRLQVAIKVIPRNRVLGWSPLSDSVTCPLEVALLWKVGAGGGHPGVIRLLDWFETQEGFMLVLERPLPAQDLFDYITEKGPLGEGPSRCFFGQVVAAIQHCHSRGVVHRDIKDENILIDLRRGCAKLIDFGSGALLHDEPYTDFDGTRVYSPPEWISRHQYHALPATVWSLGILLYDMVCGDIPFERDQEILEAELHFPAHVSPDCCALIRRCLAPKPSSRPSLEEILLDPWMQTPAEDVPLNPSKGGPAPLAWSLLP
Sequence of PIM1 (human) (P11309 whole entry, looked up): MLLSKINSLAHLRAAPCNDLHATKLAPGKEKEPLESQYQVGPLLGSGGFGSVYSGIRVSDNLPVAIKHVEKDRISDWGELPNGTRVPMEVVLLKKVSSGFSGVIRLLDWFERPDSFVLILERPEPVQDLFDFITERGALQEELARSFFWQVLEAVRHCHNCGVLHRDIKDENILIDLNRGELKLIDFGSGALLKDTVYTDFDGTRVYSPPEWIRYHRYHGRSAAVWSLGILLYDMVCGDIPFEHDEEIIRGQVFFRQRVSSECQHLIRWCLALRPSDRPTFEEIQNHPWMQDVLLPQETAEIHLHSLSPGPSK
Sequence of EEF2K (human) (O00418 whole entry, looked up): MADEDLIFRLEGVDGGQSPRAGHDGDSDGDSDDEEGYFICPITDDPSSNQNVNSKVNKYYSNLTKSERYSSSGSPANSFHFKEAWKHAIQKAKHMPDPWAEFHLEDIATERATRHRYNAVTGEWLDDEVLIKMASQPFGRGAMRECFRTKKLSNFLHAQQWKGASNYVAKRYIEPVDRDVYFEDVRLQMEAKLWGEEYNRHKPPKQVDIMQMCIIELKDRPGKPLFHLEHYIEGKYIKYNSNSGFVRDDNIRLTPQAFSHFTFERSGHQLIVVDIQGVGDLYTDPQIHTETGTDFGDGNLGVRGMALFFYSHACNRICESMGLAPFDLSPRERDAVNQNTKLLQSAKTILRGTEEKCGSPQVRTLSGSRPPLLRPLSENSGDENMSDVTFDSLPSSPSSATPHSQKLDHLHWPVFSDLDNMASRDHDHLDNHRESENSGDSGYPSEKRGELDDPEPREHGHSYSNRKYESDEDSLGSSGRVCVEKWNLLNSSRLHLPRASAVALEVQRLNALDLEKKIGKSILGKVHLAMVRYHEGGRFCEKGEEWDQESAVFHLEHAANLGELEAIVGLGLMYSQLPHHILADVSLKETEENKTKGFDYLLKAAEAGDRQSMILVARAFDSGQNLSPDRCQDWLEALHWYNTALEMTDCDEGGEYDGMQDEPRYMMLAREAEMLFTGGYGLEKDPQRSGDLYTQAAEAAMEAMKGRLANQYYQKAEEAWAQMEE
Sequence of DAPK1 (human) (P53355 whole entry, looked up): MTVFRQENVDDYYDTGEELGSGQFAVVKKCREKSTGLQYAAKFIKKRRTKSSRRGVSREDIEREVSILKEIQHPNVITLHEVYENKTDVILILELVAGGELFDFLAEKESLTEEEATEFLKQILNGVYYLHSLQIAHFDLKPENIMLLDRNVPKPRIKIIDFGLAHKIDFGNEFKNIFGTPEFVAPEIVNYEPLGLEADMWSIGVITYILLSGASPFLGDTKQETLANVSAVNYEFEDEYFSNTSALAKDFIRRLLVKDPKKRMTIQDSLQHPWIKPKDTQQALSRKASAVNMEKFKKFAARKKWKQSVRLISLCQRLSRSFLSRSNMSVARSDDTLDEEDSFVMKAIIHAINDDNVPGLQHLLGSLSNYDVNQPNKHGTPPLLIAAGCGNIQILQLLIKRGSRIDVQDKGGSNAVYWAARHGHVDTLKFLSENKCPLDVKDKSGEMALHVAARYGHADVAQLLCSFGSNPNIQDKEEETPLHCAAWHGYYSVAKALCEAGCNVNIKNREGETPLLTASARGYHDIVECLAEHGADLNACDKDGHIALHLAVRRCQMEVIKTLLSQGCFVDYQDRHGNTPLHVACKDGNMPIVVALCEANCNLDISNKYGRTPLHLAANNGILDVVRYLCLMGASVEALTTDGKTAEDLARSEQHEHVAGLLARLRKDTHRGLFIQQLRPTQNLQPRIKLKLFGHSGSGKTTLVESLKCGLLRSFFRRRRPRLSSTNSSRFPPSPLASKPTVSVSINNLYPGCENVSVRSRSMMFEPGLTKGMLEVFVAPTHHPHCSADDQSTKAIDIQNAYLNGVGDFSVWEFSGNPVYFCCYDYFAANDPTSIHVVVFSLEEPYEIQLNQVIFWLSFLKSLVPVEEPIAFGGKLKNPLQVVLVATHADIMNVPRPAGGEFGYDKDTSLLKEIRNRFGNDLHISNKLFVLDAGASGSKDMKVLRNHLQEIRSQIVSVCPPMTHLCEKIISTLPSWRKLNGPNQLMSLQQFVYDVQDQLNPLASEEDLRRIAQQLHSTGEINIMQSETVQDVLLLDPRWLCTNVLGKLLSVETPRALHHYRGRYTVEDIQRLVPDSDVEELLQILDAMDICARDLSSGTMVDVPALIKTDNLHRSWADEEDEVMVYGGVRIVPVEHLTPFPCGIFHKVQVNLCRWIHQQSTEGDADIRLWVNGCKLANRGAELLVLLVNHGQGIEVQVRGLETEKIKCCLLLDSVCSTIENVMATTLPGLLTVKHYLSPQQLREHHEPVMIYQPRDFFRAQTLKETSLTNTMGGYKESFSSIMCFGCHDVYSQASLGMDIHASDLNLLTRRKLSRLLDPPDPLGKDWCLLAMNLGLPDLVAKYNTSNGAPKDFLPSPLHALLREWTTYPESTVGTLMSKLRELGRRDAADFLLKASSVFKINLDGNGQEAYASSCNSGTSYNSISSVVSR
Sequence of MAPK9 (human) (P45984 whole entry, looked up): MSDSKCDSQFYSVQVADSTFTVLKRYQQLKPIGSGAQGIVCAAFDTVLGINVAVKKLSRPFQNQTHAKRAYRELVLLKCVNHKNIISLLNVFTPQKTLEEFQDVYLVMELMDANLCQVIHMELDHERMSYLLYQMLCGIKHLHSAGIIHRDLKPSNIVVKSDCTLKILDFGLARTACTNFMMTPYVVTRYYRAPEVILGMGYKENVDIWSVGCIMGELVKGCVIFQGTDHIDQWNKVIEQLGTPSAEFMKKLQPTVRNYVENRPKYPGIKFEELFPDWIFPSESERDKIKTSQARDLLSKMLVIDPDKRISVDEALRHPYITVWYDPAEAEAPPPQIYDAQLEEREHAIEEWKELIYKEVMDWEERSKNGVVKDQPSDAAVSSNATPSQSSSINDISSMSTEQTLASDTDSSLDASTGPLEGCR
Sequence of MAPKAPK2 (human) (P49137 whole entry, looked up): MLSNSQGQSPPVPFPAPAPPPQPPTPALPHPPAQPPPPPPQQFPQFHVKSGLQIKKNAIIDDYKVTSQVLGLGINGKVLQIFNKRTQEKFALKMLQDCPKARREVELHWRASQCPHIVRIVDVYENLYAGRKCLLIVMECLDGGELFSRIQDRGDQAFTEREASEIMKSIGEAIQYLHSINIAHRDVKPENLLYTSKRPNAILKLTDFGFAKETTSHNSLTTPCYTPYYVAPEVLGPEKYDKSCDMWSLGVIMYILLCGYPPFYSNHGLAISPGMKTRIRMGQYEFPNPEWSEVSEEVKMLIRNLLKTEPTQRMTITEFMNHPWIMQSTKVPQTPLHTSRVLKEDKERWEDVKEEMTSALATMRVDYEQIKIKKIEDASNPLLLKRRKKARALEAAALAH
Sequence of MAPK13 (human) (O15264 whole entry, looked up): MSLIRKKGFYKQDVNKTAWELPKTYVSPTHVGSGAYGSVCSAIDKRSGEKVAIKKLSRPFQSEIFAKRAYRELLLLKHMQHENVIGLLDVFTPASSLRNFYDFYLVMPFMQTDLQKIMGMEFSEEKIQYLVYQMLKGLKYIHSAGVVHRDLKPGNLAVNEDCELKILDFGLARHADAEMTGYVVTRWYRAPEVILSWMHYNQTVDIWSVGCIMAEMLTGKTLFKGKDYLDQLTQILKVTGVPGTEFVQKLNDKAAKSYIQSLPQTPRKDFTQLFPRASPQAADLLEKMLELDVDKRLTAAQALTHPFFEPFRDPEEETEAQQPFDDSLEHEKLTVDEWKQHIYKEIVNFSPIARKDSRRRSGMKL
Sequence of MKNK1 (human) (Q9BUB5 whole entry, looked up): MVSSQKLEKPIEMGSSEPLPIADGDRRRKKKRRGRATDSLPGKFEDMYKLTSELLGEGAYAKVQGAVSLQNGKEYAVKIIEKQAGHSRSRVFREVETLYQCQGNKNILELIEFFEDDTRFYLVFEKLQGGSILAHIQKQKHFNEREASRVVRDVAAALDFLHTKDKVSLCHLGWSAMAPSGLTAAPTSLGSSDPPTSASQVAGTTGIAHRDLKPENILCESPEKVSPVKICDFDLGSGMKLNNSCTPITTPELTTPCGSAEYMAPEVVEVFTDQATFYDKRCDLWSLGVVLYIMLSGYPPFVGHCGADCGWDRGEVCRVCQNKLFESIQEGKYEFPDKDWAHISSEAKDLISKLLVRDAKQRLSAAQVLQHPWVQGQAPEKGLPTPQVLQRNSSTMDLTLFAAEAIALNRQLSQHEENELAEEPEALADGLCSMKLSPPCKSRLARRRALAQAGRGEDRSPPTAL

residual activity (EEF2K (human); compound 0.1 µM): 93% | residual activity (EEF2K (human); compound 1.0 µM): 76% | residual activity (EEF2K (human); compound 10.0 µM): 69% | residual activity ([1]; compound 0.1 µM): 83% | residual activity ([1]; compound 1.0 µM): 87% | residual activity ([1]; compound 10.0 µM): 78% | residual activity (PIM2 (human); compound 0.1 µM): 103% | residual activity (PIM2 (human); compound 1.0 µM): 109% | residual activity (PIM2 (human); compound 10.0 µM): 97% | residual activity (PAK7 (human); compound 0.1 µM): 104% | residual activity (PAK7 (human); compound 1.0 µM): 100% | residual activity (PAK7 (human); compound 10.0 µM): 101% | residual activity (MAP2K2 (human); compound 0.1 µM): 104% | residual activity (MAP2K2 (human); compound 1.0 µM): 103% | residual activity (MAP2K2 (human); compound 10.0 µM): 109% | residual activity (ERBB4 (human); compound 0.1 µM): 127% | residual activity (ERBB4 (human); compound 10.0 µM): 105% | residual activity (IGF1R (human); compound 0.1 µM): 87% | residual activity (IGF1R (human); compound 1.0 µM): 86% | residual activity (IGF1R (human); compound 10.0 µM): 93% | residual activity (PIM1 (human); compound 0.1 µM): 100% | residual activity (PIM1 (human); compound 1.0 µM): 95% | residual activity (PIM1 (human); compound 10.0 µM): 95% | residual activity (PRKCZ (human); compound 0.1 µM): 106% | residual activity (PRKCZ (human); compound 1.0 µM): 108% | residual activity (PRKCZ (human); compound 10.0 µM): 92% | residual activity (SYK (human); compound 0.1 µM): 134% | residual activity (SYK (human); compound 1.0 µM): 105% | residual activity (SYK (human); compound 10.0 µM): 92% | residual activity (PHKG1 (human); compound 0.1 µM): 99% | residual activity (PHKG1 (human); compound 1.0 µM): 86% | residual activity (PHKG1 (human); compound 10.0 µM): 76% | residual activity (MARK1 (human); compound 0.1 µM): 114% | residual activity (MARK1 (human); compound 1.0 µM): 112% | residual activity (MARK1 (human); compound 10.0 µM): 104% | residual activity (MAPK9 (human); compound 0.1 µM): 85% | residual activity (MAPK9 (human); compound 1.0 µM): 90% | residual activity (MAPK9 (human); compound 10.0 µM): 88% | residual activity (MELK (human); compound 0.1 µM): 108% | residual activity (MELK (human); compound 1.0 µM): 99% | residual activity (MELK (human); compound 10.0 µM): 98% | residual activity (CAMKK2 (human); compound 0.1 µM): 97% | residual activity (CAMKK2 (human); compound 1.0 µM): 81% | residual activity (CAMKK2 (human); compound 10.0 µM): 90% | residual activity (MAPK3 (human); compound 1.0 µM): 97% | residual activity (MAPK3 (human); compound 10.0 µM): 85% | residual activity (PRKACA (human); compound 0.1 µM): 110% | residual activity (PRKACA (human); compound 1.0 µM): 106% | residual activity (PRKACA (human); compound 10.0 µM): 107% | residual activity (PRKAA1 or PRKAA2 (rat); compound 0.1 µM): 104% | residual activity (PRKAA1 or PRKAA2 (rat); compound 1.0 µM): 96% | residual activity (PRKAA1 or PRKAA2 (rat); compound 10.0 µM): 94% | residual activity (IKBKE (human); compound 0.1 µM): 106% | residual activity (IKBKE (human); compound 1.0 µM): 95% | residual activity (IKBKE (human); compound 10.0 µM): 86% | residual activity (DYRK1A (human); compound 0.1 µM): 83% | residual activity (DYRK1A (human); compound 1.0 µM): 91% | residual activity (DYRK1A (human); compound 10.0 µM): 84% | residual activity (EPHB4 (human); compound 0.1 µM): 122% | residual activity (EPHB4 (human); compound 1.0 µM): 101% | residual activity (EPHB4 (human); compound 10.0 µM): 123% | residual activity (BRSK1 (human); compound 0.1 µM): 114% | residual activity (BRSK1 (human); compound 1.0 µM): 111% | residual activity (BRSK1 (human); compound 10.0 µM): 97% | residual activity (MAP2K6 (human); compound 0.1 µM): 102% | residual activity (MAP2K6 (human); compound 1.0 µM): 98% | residual activity (MAP2K6 (human); compound 10.0 µM): 99% | residual activity (MAPKAPK5 (human); compound 0.1 µM): 89% | residual activity (MAPKAPK5 (human); compound 1.0 µM): 99% | residual activity (MAPKAPK5 (human); compound 10.0 µM): 90% | residual activity (MAP3K5 (human); compound 0.1 µM): 115% | residual activity (MAP3K5 (human); compound 1.0 µM): 99% | residual activity (MAP3K5 (human); compound 10.0 µM): 94% | residual activity (BRSK2 (human); compound 0.1 µM): 130% | residual activity (BRSK2 (human); compound 1.0 µM): 108% | residual activity (BRSK2 (human); compound 10.0 µM): 108% | residual activity (PIM3 (human); compound 0.1 µM): 118% | residual activity (PIM3 (human); compound 1.0 µM): 121% | residual activity (PIM3 (human); compound 10.0 µM): 107% | residual activity (MAPK13 (human); compound 0.1 µM): 90% | residual activity (MAPK13 (human); compound 1.0 µM): 99% | residual activity (MAPK13 (human); compound 10.0 µM): 90% | residual activity (MAPKAPK2 (human); compound 0.1 µM): 98% | residual activity (MAPKAPK2 (human); compound 1.0 µM): 95% | residual activity (MAPKAPK2 (human); compound 10.0 µM): 91% | residual activity (MKNK1 (human); compound 0.1 µM): 101% | residual activity (MKNK1 (human); compound 1.0 µM): 92% | residual activity (MKNK1 (human); compound 10.0 µM): 93% | residual activity (GSK3B (human); compound 0.1 µM): 83% | residual activity (GSK3B (human); compound 1.0 µM): 88% | residual activity (GSK3B (human); compound 10.0 µM): 71% | residual activity (MAPK12 (human); compound 0.1 µM): 93% | residual activity (MAPK12 (human); compound 1.0 µM): 80% | residual activity (MAPK12 (human); compound 10.0 µM): 87% | residual activity (FGFR1 (human); compound 0.1 µM): 115% | residual activity (FGFR1 (human); compound 1.0 µM): 111% | residual activity (FGFR1 (human); compound 10.0 µM): 104% | residual activity (DAPK1 (human); compound 0.1 µM): 109% | residual activity (DAPK1 (human); compound 1.0 µM): 101% | residual activity (DAPK1 (human); compound 10.0 µM): 103% | residual activity (HIPK3 (human); compound 0.1 µM): 118% | residual activity (HIPK3 (human); compound 1.0 µM): 112% | residual activity (HIPK3 (human); compound 10.0 µM): 102% | residual activity (STK3 (human); compound 0.1 µM): 96% | residual activity (STK3 (human); compound 1.0 µM): 90% | residual activity (STK3 (human); compound 10.0 µM): 94%
Structure (SMILES): CCCCCc1ccc(/C=C/[C@H](O)[C@@H](CO)NC)cc1
